# Test results published in US10874856B2, “Device for treating a cutaneous ulcer” (priority 2013, dated 2020).
# Tests used:
# [1] = tested on: digital ulcers; settings: cited from earlier work
# [2] = tested on: Raynaud's attacks and ulcers; settings: intravenous, versus placebo; cited from earlier work
# [3] = tested on: skin blood flow; experiment: Continuous cathodal iontophoresis on the forearm of healthy volunteers, skin blood flow by laser Doppler imaging; assay type: in vivo, human; settings: 250 μM treprostinil, cathodal iontophoresis 20 minutes
# Experimental: A clinical study then included 20 healthy volunteers. These subjects received 3 concentrations of treprostinil via continuous cathodal iontophoresis on the forearm for 20 minutes and a control iontophoresis of 0.9% NaCl. Skin blood flow was quantified by laser Doppler imaging.
# This effect is expressed as cutaneous vascular conductance (CVC; percentage of the baseline) recorded up to 24 hours.
# To implement iontophoresis on the forearm, several iontophoresis chambers containing treprostinil liquid solution in contact with a cathode, and an anode at a distance of about 15 cm from the cathode, are placed on the inside of the forearm of each patient. […] Treprostinil liquid solution was in direct contact with the subject's skin.
# [4] = Treprostinil quantification in dermal dialysate fluid (microdialysis, HPLC-MS/MS), forearm; assay type: in vivo, human; settings: post-iontophoresis
# Source text: The use of treprostinil to impregnate a primary dressing has the advantage of making it possible to cover larger areas of skin. However, it was not obvious that the results obtained by iontophoresis of treprostinil in liquid solution form in direct contact with the patient's skin could be obtained with the embodiment in accordance with the invention.
# [5] = Treprostinil plasma assay (HPLC-MS/MS) after iontophoresis on forearm and fingers; assay type: in vivo, human; settings: after iontophoresis for 20 minutes on the forearm and for 2 hours on the fingers
# Experimental: However, the fact that the patient's skin is in extended contact with an active substance is likely to involve the systemic passage of treprostinil. The Inventors thus assayed treprostinil in the plasma using high-performance liquid chromatography coupled to tandem mass spectrometry after iontophoresis for 20 minutes on the forearm and for 2 hours on the fingers.
# [6] = tested on: blood flow in the pad of the finger; experiment: Iontophoresis of treprostinil impregnating a primary dressing on the finger pad, laser speckle contrast imaging of blood flow; assay type: in vivo, human
# Experimental: FIG. 3 reproduces an image obtained by laser speckle contrast imaging of blood flow in the pad of the index finger treated by iontophoresis of treprostinil impregnating a primary dressing and in the pad of the middle finger of the same hand treated by iontophoresis of 0.9% NaCl impregnating another primary dressing, in a healthy subject. The iontophoresis was carried out under the following conditions: 240 mC/cm^2, direct current. Two 7.2 cm^2 Ag—AgCl electrodes (Iogel, Iomed Inc., Salt Lake City, Utah, USA) were soaked in 1.5 ml of treprostinil or NaCl solution (double-blind).
# These drug-soaked electrodes were connected to the cathode, while the anode was connected to passive electrodes attached at a distance of 10 cm. Low-voltage computer-controlled generators were used (PF 751 Perilont USB Power Supply, Perimed, Järfálla, Sweden). The voltage was recorded continuously in order to estimate the skin's resistance.
# FIG. 4 reproduces an image obtained by laser speckle contrast imaging of blood flow in the pad of a ring finger treated by iontophoresis of treprostinil impregnating a primary dressing and in the pad of the middle finger of the same hand treated by iontophoresis of 0.9% NaCl, in a subject with scleroderma. The variation in blood flow is represented in same manner as in FIG. 3.
# [7] = Plasma treprostinil concentration in scleroderma patients post-iontophoresis; assay type: in vivo; settings: human, other: cathodal iontophoresis, 250 μM, 30 minutes post-iontophoresis
# [8] = tested on: skin blood flow; settings: rat
# [9] = tested on: skin blood flow; settings: 12 scleroderma patients, 250 μM, direct current, 240 mC/cm^2
structure (smiles),measurement,setting,value
COc1ccccc1Oc1c(NS(=O)(=O)c2ccc(C(C)(C)C)cc2)nc(-c2ncccn2)nc1OCCO [bosentan],risk of developing new ulcers,[1]; RAPIDS-2 study,significantly reduced the risk
same,healing of preexisting ulcers,[1]; in vivo,no advantage
CC#CCC(C)[C@H](O)/C=C/[C@@H]1[C@H]2C/C(=C/CCCC(=O)O)C[C@H]2C[C@H]1O (stereo partly drawn) [iloprost],frequency of Raynaud's attacks and healing time of ulcers,[2],provided an advantage
CCCCC[C@H](O)CC[C@@H]1[C@H]2Cc3cccc(OCC(=O)O)c3C[C@H]2C[C@H]1O [treprostinil],cutaneous vascular conductance AUC80 min,[3],"31,897±24,390 % BL·min"
same,time treprostinil present in the dermis of the forearm (average),[4],up to 8 hours
same,systemic passage (plasma quantification),[5],negligible systemic passage
same,"vasomotor effect on finger pad, healthy subject (FIG. 3)","[6]; healthy subject, index finger, 240 mC/cm^2, direct current",marked vasomotor effect
same,"vasomotor effect on finger pad, subject with scleroderma (FIG. 4)","[6]; subject with scleroderma, ring finger",marked vasomotor effect
same,concentration at 30 min,[7],< 1.8 pg/mL
same,cutaneous vasodilatation,"[8]; 20 minutes of cathodal iontophoresis at 100 μA, liquid solution in direct contact with skin",caused cutaneous vasodilatation
same,persistence of effect after iontophoresis is over,[8]; cathodal iontophoresis,at least 60 minutes
same,"local toxicity, clinically and after systematic skin biopsies",[8]; in vivo,No sign of local toxicity
same,effect on skin blood flow absent current or with anodal current,[8]; no current or anodal current,no effect on skin blood flow
same,skin blood flow,[9],increase in skin blood flow
same,tolerance,[9],well tolerated
